Source: PubChem BioAssay AID1963843 (Molecular Pharmacology Branch, DTP, NCI, 2024)

Tested on: 616215-338-R-J1-PDC complex spheroid viability
Assay: Anticancer human tumor 616215-338-R-J1-PDC patient-derived colon adenocarcinoma cell line growth inhibition [POLQ]
Conditions: for IC50: curve of first compound; for viability, T/C: stronger effect = lower value; active means viability on the fitted dose curve at most 10% of control; inactive means the rest
In short: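 Growth inhibition in 3D: complex spheroids (tumor PDC, HUVEC, MSC) treated with POLQ inhibitor combinations; where Cmax unknown, highest tested concentration 10 microM, except SN-38 at 1 microM.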

[1] = second compound 0.0316 µM, first compound 0.0316 µM
[2] = second compound 0.0316 µM, first compound 0.1 µM
[3] = second compound 0.0316 µM, first compound 0.316 µM
[4] = second compound 0.0316 µM, first compound 1 µM
[5] = second compound 0.0316 µM, first compound 3.16 µM
[6] = second compound 0.0316 µM, first compound 10 µM
[7] = second compound 0.1 µM, first compound 0.0316 µM
[8] = second compound 0.1 µM, first compound 0.1 µM
[9] = second compound 0.1 µM, first compound 0.316 µM
[10] = second compound 0.1 µM, first compound 1 µM
[11] = second compound 0.1 µM, first compound 3.16 µM
[12] = second compound 0.1 µM, first compound 10 µM
[13] = second compound 0.316 µM, first compound 0.0316 µM
[14] = second compound 0.316 µM, first compound 0.1 µM
[15] = second compound 0.316 µM, first compound 0.316 µM
[16] = second compound 0.316 µM, first compound 1 µM
[17] = second compound 0.316 µM, first compound 3.16 µM
[18] = second compound 0.316 µM, first compound 10 µM
[19] = second compound 1 µM, first compound 0.0316 µM
[20] = second compound 1 µM, first compound 0.1 µM
[21] = second compound 1 µM, first compound 0.316 µM
[22] = second compound 1 µM, first compound 1 µM
[23] = second compound 1 µM, first compound 3.16 µM
[24] = second compound 1 µM, first compound 10 µM
[25] = second compound 3.16 µM, first compound 0.0316 µM
[26] = second compound 3.16 µM, first compound 0.1 µM
[27] = second compound 3.16 µM, first compound 0.316 µM
[28] = second compound 3.16 µM, first compound 1 µM
[29] = second compound 3.16 µM, first compound 3.16 µM
[30] = second compound 3.16 µM, first compound 10 µM
[31] = second compound 10 µM, first compound 0.0316 µM
[32] = second compound 10 µM, first compound 0.1 µM
[33] = second compound 10 µM, first compound 0.316 µM
[34] = second compound 10 µM, first compound 1 µM
[35] = second compound 10 µM, first compound 3.16 µM
[36] = second compound 10 µM, first compound 10 µM
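Further: spheroids exposed to compounds for one week before readout.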
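Wherever viability, T/C is given: percent viability relative to DMSO vehicle wells taken as 100%.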

CCc1cc2c(N3CCc4c(cc(Cn5ccnc5)cc4-c4cn(C)nc4C(F)(F)F)C3=O)cc(C)nc2c(OC)n1 + Cc1cccc(N(C)C(=O)C2C(O)CCN2c2nc(C)cc(C(F)(F)F)c2C#N)c1
> 10 µM: IC50 (second compound 3.16 µM)
inactive: viability, T/C [1] 107% | viability, T/C [2] 120% | viability, T/C [3] 83% | viability, T/C [4] 60.6% | viability, T/C [5] 46.4% | viability, T/C [6] 45.7% | viability, T/C [7] 108% | viability, T/C [8] 104% | viability, T/C [9] 74.8% | viability, T/C [10] 57.4% | viability, T/C [11] 49.6% | viability, T/C [12] 43.2% | viability, T/C [13] 99.8% | viability, T/C [14] 103% | viability, T/C [15] 81% | viability, T/C [16] 70.8% | viability, T/C [17] 45.7% | viability, T/C [18] 49.1% | viability, T/C [19] 105% | viability, T/C [20] 102% | viability, T/C [21] 85% | viability, T/C [22] 66.1% | viability, T/C [23] 48% | viability, T/C [24] 40% | viability, T/C [25] 106% | viability, T/C [26] 102% | viability, T/C [27] 90.2% | viability, T/C [28] 58% | viability, T/C [29] 54.6% | viability, T/C [30] 50.8% | viability, T/C [31] 106% | viability, T/C [32] 92.3% | viability, T/C [33] 81.7% | viability, T/C [34] 61.1% | viability, T/C [35] 48% | viability, T/C [36] 40.4%
2.35 µM: IC50 (second compound 0.0316 µM)
2.76 µM: IC50 (second compound 10 µM)
2.82 µM: IC50 (second compound 1 µM)
4.28 µM: IC50 (second compound 0.316 µM)
2.24 µM: IC50 (second compound 0.1 µM)

CCc1cc2c(N3CCc4c(cc(Cn5ccnc5)cc4-c4cn(C)nc4C(F)(F)F)C3=O)ccnc2c(OC)n1 + Cc1cccc(N(C)C(=O)C2C(O)CCN2c2nc(C)cc(C(F)(F)F)c2C#N)c1
6.68 µM: IC50 (second compound 1 µM)
6.35 µM: IC50 (second compound 0.1 µM)
4.78 µM: IC50 (second compound 0.316 µM)
inactive: viability, T/C [1] 98% | viability, T/C [2] 102% | viability, T/C [3] 86.4% | viability, T/C [4] 69.4% | viability, T/C [5] 63.9% | viability, T/C [6] 46.8% | viability, T/C [7] 107% | viability, T/C [8] 106% | viability, T/C [9] 83.2% | viability, T/C [10] 84.2% | viability, T/C [11] 52.7% | viability, T/C [12] 46.3% | viability, T/C [13] 106% | viability, T/C [14] 102% | viability, T/C [15] 94% | viability, T/C [16] 70.8% | viability, T/C [17] 54.5% | viability, T/C [18] 43.8% | viability, T/C [19] 113% | viability, T/C [20] 104% | viability, T/C [21] 88.4% | viability, T/C [22] 74.1% | viability, T/C [23] 58.8% | viability, T/C [24] 45.2% | viability, T/C [25] 97% | viability, T/C [26] 94.8% | viability, T/C [27] 95% | viability, T/C [28] 63% | viability, T/C [29] 59.3% | viability, T/C [30] 41.3% | viability, T/C [31] 98% | viability, T/C [32] 88.6% | viability, T/C [33] 90.9% | viability, T/C [34] 61.7% | viability, T/C [35] 60.7% | viability, T/C [36] 43.5%
8.63 µM: IC50 (second compound 0.0316 µM)
3.9 µM: IC50 (second compound 3.16 µM)
5.8 µM: IC50 (second compound 10 µM)

COc1cc2cc(C(=O)CCC(=O)O)sc2cc1OC + Cc1cccc(N(C)C(=O)C2C(O)CCN2c2nc(C)cc(C(F)(F)F)c2C#N)c1
> 10 µM: IC50 (second compound 0.0316 µM) | IC50 (second compound 0.1 µM) | IC50 (second compound 0.316 µM) | IC50 (second compound 1 µM) | IC50 (second compound 3.16 µM) | IC50 (second compound 10 µM)
inactive: viability, T/C [1] 99.9% | viability, T/C [2] 99.6% | viability, T/C [3] 92% | viability, T/C [4] 104% | viability, T/C [5] 117% | viability, T/C [6] 95.9% | viability, T/C [7] 100% | viability, T/C [8] 109% | viability, T/C [9] 109% | viability, T/C [10] 108% | viability, T/C [11] 116% | viability, T/C [12] 102% | viability, T/C [13] 96% | viability, T/C [14] 103% | viability, T/C [15] 102% | viability, T/C [16] 109% | viability, T/C [17] 103% | viability, T/C [18] 101% | viability, T/C [19] 105% | viability, T/C [20] 101% | viability, T/C [21] 95.2% | viability, T/C [22] 107% | viability, T/C [23] 106% | viability, T/C [24] 92.4% | viability, T/C [25] 110% | viability, T/C [26] 102% | viability, T/C [27] 104% | viability, T/C [28] 102% | viability, T/C [29] 112% | viability, T/C [30] 99.3% | viability, T/C [31] 109% | viability, T/C [32] 102% | viability, T/C [33] 99.6% | viability, T/C [34] 98.3% | viability, T/C [35] 119% | viability, T/C [36] 85.1%

O=C(Nc1ccc(O)c(NS(=O)(=O)c2ccc(F)cc2)c1)c1ccc(-c2ccccc2)cc1 + Cc1cccc(N(C)C(=O)C2C(O)CCN2c2nc(C)cc(C(F)(F)F)c2C#N)c1
7.24 µM: IC50 (second compound 10 µM)
> 10 µM: IC50 (second compound 0.0316 µM) | IC50 (second compound 0.1 µM) | IC50 (second compound 0.316 µM)
inactive: viability, T/C [1] 109% | viability, T/C [2] 105% | viability, T/C [3] 103% | viability, T/C [4] 93.7% | viability, T/C [5] 101% | viability, T/C [6] 72.5% | viability, T/C [7] 109% | viability, T/C [8] 95.7% | viability, T/C [9] 108% | viability, T/C [10] 114% | viability, T/C [11] 96.5% | viability, T/C [12] 76.1% | viability, T/C [13] 95.2% | viability, T/C [14] 117% | viability, T/C [15] 92.1% | viability, T/C [16] 108% | viability, T/C [17] 103% | viability, T/C [18] 73% | viability, T/C [19] 98.3% | viability, T/C [20] 99.8% | viability, T/C [21] 107% | viability, T/C [22] 96.6% | viability, T/C [23] 82% | viability, T/C [24] 33.4% | viability, T/C [25] 117% | viability, T/C [26] 106% | viability, T/C [27] 95.3% | viability, T/C [28] 88.1% | viability, T/C [29] 95.4% | viability, T/C [30] 40.5% | viability, T/C [31] 108% | viability, T/C [32] 102% | viability, T/C [33] 91.8% | viability, T/C [34] 93.1% | viability, T/C [35] 87.2% | viability, T/C [36] 35.8%
8.18 µM: IC50 (second compound 3.16 µM)
6.74 µM: IC50 (second compound 1 µM)
